Columns and labels:
Format in all cases: biochemical
PIM3 [1] = target: T1, PIM3 (Homo sapiens, UniProt Q86V86); assay: KinaseGlo Pim3 ATP depletion assay
Method in brief: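 Residual ATP was detected by luciferase luminescence once about half had been consumed. The reaction contained 5 nM enzyme, 100 μM BAD peptide (RSRHSSYPAGT) and 40 μM ATP in 50 mM HEPES pH 7.5, 5 mM MgCl2, 1 mM DTT and 0.05% BSA with 2.5% DMSO. Compound and enzyme/peptide were premixed 15 min before ATP.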

PIM1 [2] = target: T2, PIM1 (Homo sapiens, UniProt P11309); assay: KinaseGlo Pim1 ATP depletion assay
T2 sequence (P11309 whole entry): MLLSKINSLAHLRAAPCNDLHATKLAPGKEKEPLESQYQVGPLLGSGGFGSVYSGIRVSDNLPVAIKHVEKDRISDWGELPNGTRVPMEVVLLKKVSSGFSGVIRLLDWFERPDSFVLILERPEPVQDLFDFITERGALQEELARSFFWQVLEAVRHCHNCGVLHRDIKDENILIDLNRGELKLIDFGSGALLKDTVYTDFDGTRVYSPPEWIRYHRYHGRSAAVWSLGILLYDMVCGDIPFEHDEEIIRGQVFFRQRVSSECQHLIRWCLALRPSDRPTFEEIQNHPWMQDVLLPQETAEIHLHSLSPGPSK
Method in brief: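 IC50 is derived from residual ATP measured by KinaseGlo Plus luminescence once about half the ATP was consumed. Final conditions were 20 μM ATP, 40 μM BAD peptide and 2.5 nM kinase in HEPES pH 7.5 buffer with MgCl2, DTT and BSA, plus 2.5% DMSO. Compound and enzyme were premixed 15 min before ATP addition.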

PIM2 = PIM2 (Homo sapiens, UniProt Q9P1W9); assay: KinaseGlo Pim2 ATP depletion assay
Chain of PIM2 (Q9P1W9 whole entry): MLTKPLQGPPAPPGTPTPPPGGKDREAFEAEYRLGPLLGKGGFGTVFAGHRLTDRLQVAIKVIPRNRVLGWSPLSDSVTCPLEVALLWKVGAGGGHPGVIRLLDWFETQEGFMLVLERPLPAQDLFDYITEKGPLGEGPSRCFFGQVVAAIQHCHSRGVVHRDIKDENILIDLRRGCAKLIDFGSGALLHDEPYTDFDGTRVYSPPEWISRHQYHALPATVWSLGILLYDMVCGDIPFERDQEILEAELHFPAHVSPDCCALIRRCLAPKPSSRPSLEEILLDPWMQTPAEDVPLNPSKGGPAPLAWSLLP
Method in brief: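 Compound sat 15 min with enzyme and BAD peptide before ATP was added; final levels 5 nM PIM2, 10 μM peptide, 4 μM ATP, 2.5% DMSO, pH 7.5 HEPES buffer with MgCl2, DTT, BSA. Stopped near 50% ATP consumption; remaining ATP measured by luciferase luminescence.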

PIM3 [3] = target: T1, PIM3; assay: Pim 3 AlphaScreen assay (high ATP); conditions: read-out: Pim3 IC50
Method in brief: (§1)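 IC50 values rest on detection of phosphorylated Bad peptide: after a ~2 h kinase reaction, an EDTA stop buffer containing anti-phospho Ser/Thr antibody, Protein A and streptavidin AlphaScreen beads was added and read after overnight dark incubation. ATP was high (11-125× Km), with 2.5% DMSO in pH 7.5 Hepes buffer containing MgCl2, BSA, Tween-20 and DTT.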

PIM1 [4] = target: T2, PIM1; assay: Pim 1 AlphaScreen assay (high ATP); conditions: read-out: Pim1 IC50
Method in brief: as §1

| Structure (SMILES) | IC50 (PIM3 [1]) [nM] | IC50 (PIM1 [2]) [nM] | IC50 (PIM2) [nM] | IC50 (PIM3 [3]) [nM] | IC50 (PIM1 [4]) [nM] |
| --- | --- | --- | --- | --- | --- |
| C=C1[C@@H](O)C[C@@H](c2ccncc2NC(=O)c2nc(-c3ccccc3)cnc2N)OC12CC2 [Example 5, 3-amino-N-(4-((5S,7S)-7-hydroxy-8-methylene-4-oxaspiro[2.5]octan-5-yl)pyridin-3-yl)-6-phenylpyrazine-2-carboxamide] | 37.3 | 25.9 | 254 | – | – |
| C[C@H]1O[C@@H](c2ccncc2NC(=O)c2nc(-c3ccccc3)ncc2N)C[C@@H](O)[C@]1(C)O [Example 32, 5-amino-N-(4-((2R,4R,5S,6R)-4,5-dihydroxy-5,6-dimethyltetrahydro-2H-pyran-2-yl)pyridin-3-yl)-2-phenylpyrimidine-4-carboxamide] | 3 | 5 | 44 | – | – |
| Nc1ncc(-c2ccccc2)nc1C(=O)Nc1cnccc1[C@H]1C[C@@H](O)[C@H](O)[C@@H](CCl)O1 [Example 36, 3-amino-N-(4-((2R,4R,5S,6S)-6-(chloromethyl)-4,5-dihydroxytetrahydro-2H-pyran-2-yl)pyridin-3-yl)-6-phenylpyrazine-2-carboxamide] | 2 | 1 | 8 | – | – |
| CC[C@H]1O[C@@H](c2ccncc2NC(=O)c2nc(-c3ccccc3)ncc2N)C[C@@H](O)[C@@H]1O [Example 39, 5-amino-N-(4-((2R,4R,5S,6R)-6-ethyl-4,5-dihydroxytetrahydro-2H-pyran-2-yl)pyridin-3-yl)-2-phenylpyrimidine-4-carboxamide] | 4 | 4 | 40 | – | – |
| C[C@H]1O[C@@H](c2ccncc2NC(=O)c2nc(-c3ccccc3)cnc2N)[C@H](F)[C@@H](O)[C@]1(C)O [Example 58, 3-amino-N-(4-((2S,3R,4S,5S,6R)-3-fluoro-4,5-dihydroxy-5,6-dimethyltetrahydro-2H-pyran-2-yl)pyridin-3-yl)-6-phenylpyrazine-2-carboxamide] | 27 | 9 | 276 | – | – |
| C[C@@H]1O[C@H](c2ccncc2NC(=O)c2nc(-c3ccccc3)cnc2N)[C@@H](F)[C@H](O)[C@@]1(C)O [Example 63, 3-amino-N-(4-((2R,3S,4R,5R,6S)-3-fluoro-4,5-dihydroxy-5,6-dimethyltetrahydro-2H-pyran-2-yl)pyridin-3-yl)-6-phenylpyrazine-2-carboxamide] | 31 | 6 | 924 | – | – |
| C[C@H]1O[C@@H](c2ccncc2NC(=O)c2nc(-c3ccccc3)cnc2N)C[C@@H](O)[C@]1(C)O [Example 84, 3-amino-N-(4-((2R,4R,5S,6R)-4,5-dihydroxy-5,6-dimethyltetrahydro-2H-pyran-2-yl)pyridin-3-yl)-6-phenylpyrazine-2-carboxamide] | 3 | 1 | 33 | – | – |
| C[C@@H]1O[C@H](c2ccncc2NC(=O)c2nc(-c3ccccc3)cnc2N)C[C@H](O)[C@@]1(C)O [Example 86, 3-amino-N-(4-((2S,4S,5R,6S)-4,5-dihydroxy-5,6-dimethyltetrahydro-2H-pyran-2-yl)pyridin-3-yl)-6-phenylpyrazine-2-carboxamide] | 15 | 5 | 164 | – | – |
| CC[C@]1(O)[C@H](O)C[C@H](c2ccncc2NC(=O)c2nc(-c3c(F)cccc3F)ncc2N)O[C@@H]1C [Example 143, 5-amino-2-(2,6-difluorophenyl)-N-(4-((2R,4R,5S,6R)-5-ethyl-4,5-dihydroxy-6-methyltetrahydro-2H-pyran-2-yl)pyridin-3-yl)pyrimidine-4-carboxamide] | 2.4 | 1.3 | 3.5 | – | – |
| Nc1ncc(-c2ccccc2)nc1C(=O)Nc1cnccc1[C@H]1C[C@@H](O)[C@@]2(O)CCCC[C@H]2O1 [Example 173, 3-amino-N-(4-((2R,4R,4aS,8aR)-4,4a-dihydroxyoctahydro-2H-chromen-2-yl)pyridin-3-yl)-6-phenylpyrazine-2-carboxamide] | 3.6 | 2.2 | 15.7 | – | – |
| Nc1ncc(-c2ccccc2)nc1C(=O)Nc1cnccc1[C@@H]1C[C@H](O)[C@]2(O)CCCC[C@@H]2O1 [Example 176, 3-amino-N-(4-((2S,4S,4aR,8aS)-4,4a-dihydroxyoctahydro-2H-chromen-2-yl)pyridin-3-yl)-6-phenylpyrazine-2-carboxamide] | 202 | 63.8 | 1820 | – | – |
| O=C(Nc1cnccc1[C@H]1C[C@@H](O)[C@@]2(O)CCCC[C@H]2O1)c1c[nH]cc(-c2ccccc2)c1=O [Example 178, N-(4-((2R,4R,4aS,8aR)-4,4a-dihydroxyoctahydro-2H-chromen-2-yl)pyridin-3-yl)-4-oxo-5-phenyl-1,4-dihydropyridine-3-carboxamide] | 124 | 154 | 2180 | – | – |

Continued, values first:

| IC50 (PIM3 [1]) [nM] | IC50 (PIM1 [2]) [nM] | IC50 (PIM2) [nM] | IC50 (PIM3 [3]) [nM] | IC50 (PIM1 [4]) [nM] | Structure (SMILES) |
| --- | --- | --- | --- | --- | --- |
| 610 | 159 | 3190 | – | – | Nc1ncc(-c2ccccc2)nc1C(=O)Nc1cnccc1[C@@H]1C[C@H](O)[C@]2(O)CCC[C@@H]2O1 [Example 186, 3-amino-N-(4-((2S,4S,4aR,7aS)-4,4a-dihydroxyoctahydrocyclopenta[b]pyran-2-yl)pyridin-3-yl)-6-phenylpyrazine-2-carboxamide] |
| 3.2 | 2.2 | 12.1 | – | – | Nc1ncc(-c2ccccc2)nc1C(=O)Nc1cnccc1[C@H]1C[C@@H](O)[C@@]2(O)CCC[C@H]2O1 [Example 195, 3-amino-N-(4-((2R,4R,4aS,7aR)-4,4a-dihydroxyoctahydrocyclopenta[b]pyran-2-yl)pyridin-3-yl)-6-phenylpyrazine-2-carboxamide] |
| 3.6 | 3.4 | 10.8 | – | – | O=C1CC[C@H]2O[C@@H](c3ccncc3NC(=O)c3ccc(F)c(-c4c(F)cccc4F)n3)C[C@@H](O)[C@@H]2N1 [Example 196, 6-(2,6-difluorophenyl)-5-fluoro-N-(4-((2R,4R,4aS,8aR)-4-hydroxy-6-oxooctahydro-2H-pyrano[3,2-b]pyridin-2-yl)pyridin-3-yl)picolinamide] |
| 2.3 | 0.5 | 2.4 | – | – | N[C@@H]1C[C@H](c2ccncc2NC(=O)c2ccc(F)c(-c3c(F)cccc3F)n2)O[C@@H]2CCC[C@]12O [Example 210, N-(4-((2R,4R,4aS,7aR)-4-amino-4a-hydroxyoctahydrocyclopenta[b]pyran-2-yl)pyridin-3-yl)-6-(2,6-difluorophenyl)-5-fluoropicolinamide] |
| 5.8 | 3.9 | 6.3 | – | – | Nc1cnc(-c2c(F)cccc2F)nc1C(=O)Nc1cnccc1[C@H]1C[C@@H](N)[C@@]2(O)CCC[C@H]2O1 [Example 213, 5-amino-N-(4-((2R,4R,4aS,7aR)-4-amino-4a-hydroxyoctahydrocyclopenta[b]pyran-2-yl)pyridin-3-yl)-2-(2,6-difluorophenyl)pyrimidine-4-carboxamide] |
| – | – | – | 1.4 | 0.09 | C[C@H]1O[C@@H](c2ccncc2NC(=O)c2ccc(F)c(-c3c(F)cccc3F)n2)C[C@@H](N)[C@]1(C)O [Example 219, N-(4-((2R,4R,5S,6R)-4-amino-5-hydroxy-5,6-dimethyltetrahydro-2H-pyran-2-yl)pyridin-3-yl)-6-(2,6-difluorophenyl)-5-fluoropicolinamide] |
| – | – | – | 4.1 | 0.1 | N[C@@H]1C[C@H](c2ccncc2NC(=O)c2ccc(F)c(-c3c(F)cccc3F)n2)O[C@@H]2CCC[C@H]12 [Example 224, N-(4-((2R,4R,4aR,7aR)-4-aminooctahydrocyclopenta[b]pyran-2-yl)pyridin-3-yl)-6-(2,6-difluorophenyl)-5-fluoropicolinamide] |
| – | – | – | 482 | 6.83 | N[C@H]1C[C@@H](c2ccncc2NC(=O)c2csc(-c3c(F)cccc3F)n2)O[C@H]2CCC[C@H]21 [Example 230, N-(4-((2S,4S,4aS,7aS)-4-aminooctahydrocyclopenta[b]pyran-2-yl)pyridin-3-yl)-2-(2,6-difluorophenyl)thiazole-4-carboxamide] |
| – | – | – | 0.6 | 0.08 | Nc1cc(F)c(-c2c(F)cccc2F)nc1C(=O)Nc1cnccc1[C@H]1C[C@@H](N)[C@@]2(O)CCCC[C@H]2O1 [Example 238, 3-amino-N-(4-((2R,4R,4aS,8aR)-4-amino-4a-hydroxyoctahydro-2H-chromen-2-yl)pyridin-3-yl)-6-(2,6-difluorophenyl)-5-fluoropicolinamide] |
| – | – | – | 0.8 | 0.04 | COc1cc(F)c(-c2nc(C(=O)Nc3cnccc3[C@H]3C[C@@H](N)[C@](C)(O)[C@@H](C)O3)ccc2F)c(F)c1 [Example 242, N-(4-((2R,4R,5S,6R)-4-amino-5-hydroxy-5,6-dimethyltetrahydro-2H-pyran-2-yl)pyridin-3-yl)-6-(2,6-difluoro-4-methoxyphenyl)-5-fluoropicolinamide] |

— patent publication US20130109682A1, “CYCLIC ETHER COMPOUNDS USEFUL AS KINASE INHIBITORS” (NOVARTIS AG, priority 2010, published 2013)
